Data from US5140018A, “1,3,2-benzodithiazole-1-oxide compounds” (Abbott Laboratories, priority 1991, dated 1992).
In brackets after ≈: the same amount, converted by molar mass. Read-outs that look alike come from different tables or passages of the source.

Assays:
Format in all cases: cell-based
[1] = tested on: Candida albicans ATCC 38247; test: In vitro antifungal MIC, Candida albicans ATCC 38247
Procedure: (§1) The in vitro antifungal activity of the compounds of the present invention against a variety of fungiwas determined as follow: Test medium was prepared by dissolving first 5 g of dextrose and then 6.7 g of Bacto Yeast Nitrogen Base® (commercially available from Difco Laboratories) in 100 mL of distilled water. The solution was filter-sterilized and diluted 1:10 with 0.01M pH 8.0 phosphate buffer solution, and the final pH of the medium adjusted to about pH 7.0 when necessary with either 0.1N hydrochloric acid solution of 0.1N sodium hydroxide solution. […] These concentrated stock solutions were diluted to a concentration of 200 μg/mL (twice the highest concentration desired for testing) with the test medium. Amphotericin B, similarly prepared, was used as a reference antifungal agent.
(§2) The test organisms were then inoculated into test tubes containing approximately 3 to 10 mL of test medium and the test tubes incubated overnight at 37° C. A sample of each overnight culture was placed in a test tube and diluted using the test medium until a reading of 95% transmittance was obtained in a conventional UV/visible spectrophotometer set to 560 nm. The adjusted cultures were then diluted 1:50 with test medium. These diluted cultures served as the inocula for the assays which follow and were used within 15 minutes of preparation.
(§3) Next, 2-fold serial dilutions of each test compound in test medium were prepared in a 96-well microtiter plate using calibrated microdiluters attached to an automatic (hand-held) diluter (available from Dynatech Laboratories).
(§4) Using sterile calibrated droppers or a multi-point dispenser, the diluted inoculum suspension was added to each of the wells in the plate. When inoculation was complete, the microtiter tray was covered with a plastic plate sealer to minimize evaporation. After the plate had been sealed, a hole was made above each well with a sterile 26-gauge syringe needle in order to allow gas exchange. If plate sealers were not available, the microtiter trays were stacked in groups of five or less with an empty tray on top. The microtiter trays were then incubated in a humidified chamber at 35°-37° C. for 48 hours or until growth was visible in the growth control wells.
(§5) The minimum inhibitory concentration (MIC) was defined as the lowest concentration of test compound yielding no growth, a slight haze or sparsely isolated colonies on the inoculum spot as compared to the growth control containing no test compound.

[2] = tested on: Aspergillus niger ATCC 16404; test: In vitro antifungal MIC, Aspergillus niger ATCC 16404
Procedure: as §1, §2, §3, §4, §5

Candida kefyr ATCC 28838 = test: In vitro antifungal MIC, Candida kefyr ATCC 28838
Procedure: as §1, §2, §3, §4, §5

[3] = tested on: Candida albicans ATCC 62376; test: In vitro antifungal MIC, Candida albicans ATCC 62376
Procedure: as §1, §2, §3, §4, §5

[4] = tested on: Torulopsis glabrata ATCC 15545; test: In vitro antifungal MIC, Torulopsis glabrata ATCC 15545
Procedure: as §1, §2, §3, §4, §5

[5] = tested on: Candida tropicalis NRRL-Y-112; test: In vitro antifungal MIC, Candida tropicalis NRRL-Y-112
Procedure: as §1, §2, §3, §4, §5

[6] = tested on: Cryptococcus albidus ATCC 34140; test: In vitro antifungal MIC, Cryptococcus albidus ATCC 34140
Procedure: as §1, §2, §3, §4, §5

Candida albicans 579A = test: In vitro antifungal MIC, Candida albicans 579A
Procedure: as §1, §2, §3, §4, §5

[7] = tested on: Candida albicans ATCC 10231; test: In vitro antifungal MIC, Candida albicans ATCC 10231
Procedure: as §1, §2, §3, §4, §5

Candida albicans CCH 442 = test: In vitro antifungal MIC, Candida albicans CCH 442
Procedure: as §1, §2, §3, §4, §5

[8] = ATCC38247, Candida albicans ATCC 38247, 35°-37° C., 48 hours, read-out: MIC
[9] = ATCC16404, Aspergillus niger ATCC 16404, 35°-37° C., 48 hours, read-out: MIC
[10] = Kluyveromyces marxianus, ATCC28838, Candida kefyr ATCC 28838, 35°-37° C., 48 hours, read-out: MIC
[11] = ATCC62376, Candida albicans ATCC 62376, 35°-37° C., 48 hours, read-out: MIC
[12] = Nakaseomyces glabratus, ATCC15545, Torulopsis glabrata ATCC 15545, 35°-37° C., 48 hours, read-out: MIC
[13] = NRRLY112, Candida tropicalis NRRL-Y-112, 35°-37° C., 48 hours, read-out: MIC
[14] = Naganishia albida, ATCC34140, Cryptococcus albidus ATCC 34140, 35°-37° C., 48 hours, read-out: MIC
[15] = Candida albicans 579A, 35°-37° C., 48 hours, read-out: MIC
[16] = ATCC10231, Candida albicans ATCC 10231, 35°-37° C., 48 hours, read-out: MIC
[17] = CCH442, Candida albicans CCH 442, 35°-37° C., 48 hours, read-out: MIC

MIC [1, 8] [µg/mL]	MIC [2, 9] [µg/mL]	MIC (Candida kefyr ATCC 28838; [10]) [µg/mL]	MIC [3, 11] [µg/mL]	MIC [4, 12] [µg/mL]	MIC [5, 13] [µg/mL]	MIC [6, 14] [µg/mL]	MIC (Candida albicans 579A; [15]) [µg/mL]	MIC [7, 16] [µg/mL]	MIC (Candida albicans CCH 442; [17]) [µg/mL]	SMILES	further results
–	–	–	–	–	–	–	–	–	–	CC[Si](CC)(CC)OCCN1Sc2ccccc2[S+]1[O-] (centres unmarked) [Example 20, 2-(2-(triethylsilyloxy)ethyl)-1,3,2-benzodithiazole-1-oxide]	MIC ([1]; Candida albicans, ATCC38247, 48 h): 3.12 µg/mL (≈ 9.47 µM); MIC ([2]; Aspergillus niger, ATCC16404, 48 h): 12.5 µg/mL (≈ 37.9 µM); MIC (Candida kefyr ATCC 28838; Kluyveromyces marxianus, ATCC28838, 48 h): 1.56 µg/mL (≈ 4.73 µM); MIC ([3]; Candida albicans, ATCC62376, 48 h): 25 µg/mL (≈ 75.9 µM); MIC ([4]; Nakaseomyces glabratus, ATCC15545, 48 h): 25 µg/mL (≈ 75.9 µM); MIC ([5]; Candida tropicalis, NRRLY112, 48 h): 25 µg/mL (≈ 75.9 µM); MIC ([6]; Naganishia albida, ATCC34140, 48 h): 12.5 µg/mL (≈ 37.9 µM); MIC (Candida albicans 579A; Candida albicans, 579A, 48 h): 25 µg/mL (≈ 75.9 µM); MIC ([7]; Candida albicans, ATCC10231, 48 h): 25 µg/mL (≈ 75.9 µM); MIC (Candida albicans CCH 442; Candida albicans, CCH442, 48 h): 50 µg/mL (≈ 152 µM)
–	–	–	–	–	–	–	–	–	–	CCOC(=O)CN1Sc2ccccc2[S+]1[O-] (centres unmarked) [Example 21, ethyl 2-(1,3,2-benzodithiazole-2-yl-1-oxide)-acetate]	MIC ([1]; Candida albicans ATCC 38247, 35°-37° C., 48 hours): 6.25 µg/mL (≈ 24.3 µM); MIC ([2]; Aspergillus niger ATCC 16404, 35°-37° C., 48 hours): 1.56 µg/mL (≈ 6.06 µM); MIC (Candida kefyr ATCC 28838; Candida kefyr ATCC 28838, 35°-37° C., 48 hours): 0.78 µg/mL (≈ 3.03 µM); MIC ([3]; Candida albicans ATCC 62376, 35°-37° C., 48 hours): 6.25 µg/mL (≈ 24.3 µM); MIC ([4]; Torulopsis glabrata ATCC 15545, 35°-37° C., 48 hours): 3.12 µg/mL (≈ 12.1 µM); MIC ([5]; Candida tropicalis NRRL-Y-112, 35°-37° C., 48 hours): 6.25 µg/mL (≈ 24.3 µM); MIC ([6]; Cryptococcus albidus ATCC 34140, 35°-37° C., 48 hours): 12.5 µg/mL (≈ 48.6 µM); MIC (Candida albicans 579A; Candida albicans 579A, 35°-37° C., 48 hours): 6.25 µg/mL (≈ 24.3 µM); MIC ([7]; Candida albicans ATCC 10231, 35°-37° C., 48 hours): 6.25 µg/mL (≈ 24.3 µM); MIC (Candida albicans CCH 442; Candida albicans CCH 442, 35°-37° C., 48 hours): 6.25 µg/mL (≈ 24.3 µM)
50 (≈ 183 µM)	25 (≈ 91.5 µM)	3.12 (≈ 11.4 µM)	100 (≈ 366 µM)	100 (≈ 366 µM)	100 (≈ 366 µM)	100 (≈ 366 µM)	100 (≈ 366 µM)	100 (≈ 366 µM)	100 (≈ 366 µM)	O=C(O)COCCN1Sc2ccccc2[S+]1[O-] (centres unmarked) [Example 22, 2-(2-(1,3,2-benzodithiazole-2-yl-1-oxide)ethyloxy) acetic acid]	–
12.5 (≈ 48.8 µM)	12.5 (≈ 48.8 µM)	3.12 (≈ 12.2 µM)	50 (≈ 195 µM)	50 (≈ 195 µM)	50 (≈ 195 µM)	12.5 (≈ 48.8 µM)	50 (≈ 195 µM)	50 (≈ 195 µM)	50 (≈ 195 µM)	CN(C)CCCN1Sc2ccccc2[S+]1[O-] (centres unmarked) [Example 23, 2-(3-(N,N-dimethylamino)-n-propyl)-1,3,2-benzodithiazole-1-oxide]	–
12.5 (≈ 44.3 µM)	3.12 (≈ 11 µM)	0.78 (≈ 2.76 µM)	25 (≈ 88.5 µM)	12.5 (≈ 44.3 µM)	25 (≈ 88.5 µM)	12.5 (≈ 44.3 µM)	25 (≈ 88.5 µM)	25 (≈ 88.5 µM)	25 (≈ 88.5 µM)	[O-][S+]1c2ccccc2SN1CCN1CCCCC1 (centres unmarked) [Example 24, 2-(2-(1-piperidinyl)ethyl)-1,3,2-benzodithiazole-1-oxide]	–
1.56 (≈ 4.95 µM)	3.12 (≈ 9.89 µM)	3.12 (≈ 9.89 µM)	6.25 (≈ 19.8 µM)	6.25 (≈ 19.8 µM)	12.5 (≈ 39.6 µM)	12.5 (≈ 39.6 µM)	3.12 (≈ 9.89 µM)	6.25 (≈ 19.8 µM)	1.56 (≈ 4.95 µM)	CCOC(CCCN1Sc2ccccc2[S+]1[O-])OCC (centres unmarked) [Example 25, 2-(4,4-diethoxybutyl)-1,3,2-benzodithiazole-1-oxide]	–
12.5 (≈ 38.2 µM)	0.78 (≈ 2.38 µM)	0.78 (≈ 2.38 µM)	1.56 (≈ 4.76 µM)	3.12 (≈ 9.53 µM)	3.12 (≈ 9.53 µM)	6.25 (≈ 19.1 µM)	3.12 (≈ 9.53 µM)	1.56 (≈ 4.76 µM)	3.12 (≈ 9.53 µM)	COC(=O)CCCCCCCN1Sc2ccccc2[S+]1[O-] (centres unmarked) [Example 26]	–
3.12 (≈ 14.8 µM)	0.39 (≈ 1.85 µM)	0.39 (≈ 1.85 µM)	0.78 (≈ 3.69 µM)	0.78 (≈ 3.69 µM)	1.56 (≈ 7.38 µM)	3.12 (≈ 14.8 µM)	0.78 (≈ 3.69 µM)	1.56 (≈ 7.38 µM)	1.56 (≈ 7.38 µM)	[O-][S+]1c2ccccc2SN1C1CC1 (centres unmarked) [Example 27, 2-cyclopropyl-1,3,2-benzodithiazole-1-oxide]	–
